The subject of data set [1] is Trichophyton rubrum. The experiment in a line: Minimum inhibitory concentration, agar plate dilution method (Sabouraud dextrose medium). The data set is classed as cell-based. The conditions noted are these: T.r. As to the method: (§1) The minimum inhibition concentration was assayed by the agar plate dilution method using Sabouraud dextrose medium.
The test system of data set [2] is Candida albicans. The description is as above. In kind it is cell-based. The conditions noted are these: C.a. As to the method:
as §1

Data set [3] has as its system Microsporum canis. Described as above. The data set is classed as cell-based. Particulars: M.c. As to the method:
as §1

Data set [4] has as its system Trichophyton mentagrophytes. Described as above. The data set is classed as cell-based. The conditions noted are these: T.m. As to the method: as §1
A short description of data set [5]: Stability in ethanol (residual ratio by HPLC). Particulars: 50% ethanol, 50% ethanol solution, 0.01%; for remaining at 2160 h: 3 months; for remaining at 288 h: 12 days. In kind it is physicochemical. The protocol:
The residual ratio was determined under the following conditions by the HPLC method.
*Measured in a 50% ethanol solution (sample concentration: 0.01%)
Column: STR ODSM 4.6 × 150 mm
Injection volume: 40 μl
Mobile phase: CH3 CN:H2 O (1:1)
Temperature: room temperature

For data set [6] the following is noted: prior-art compounds; cited from earlier work.
Data set [7] concerns fungi. The conditions noted are these: prior-art compounds; cited from earlier work.

Each structure is given as a SMILES string. Values after ≈ are worked out from the molar mass of the structure shown.

For `C[C@H](N=[N+]([O-])C=Cc1ccc(OCC#CI)cc1)[C@@H](C)O` [5 (2R), 2(R)-3(S)-3-(4-(3-iodo-2-propynyloxy)styryl-ONN-azoxy)-2-butanol], the MIC in data set [1] stood at 1.6 mg/L (≈ 4 µM); in data set [2], 12.5 mg/L (≈ 31.2 µM); in data set [3], 1.6 mg/L (≈ 4 µM); in data set [4], 0.8 mg/L (≈ 2 µM). In addition, the share remaining at 2160 h in data set [5] (4° C.) was determined as 99.6%; in data set [5] (25° C.), 99.3%; in data set [5] (40° C.), 92.7%; in data set [5] (pH 4, pH 4, 40° C.), 101%; in data set [5] (pH 6, pH 6, 40° C.), 101%; in data set [5] (pH 8, pH 8, 40° C.) it was 83.6%.

As to `C[C@H](O)[C@H](C)N=[N+]([O-])C=Cc1ccc(OCC#CI)cc1` [5 (2S), 2(S)-3(S)-3-(4-(3-iodo-2-propynyloxy)styryl-ONN-azoxy)-2-butanol], the minimum inhibitory concentration (MIC) in data set [1] stood at 1.6 mg/L (≈ 4 µM); in data set [2], 6.3 mg/L (≈ 15.7 µM); in data set [3] it was 1.6 mg/L (≈ 4 µM); in data set [4] it was 0.8 mg/L (≈ 2 µM). In addition, the fraction remaining at 2160 h in data set [5] (4° C.) is 99.8%; in data set [5] (25° C.) it was 97.4%; in data set [5] (40° C.), 86.1%; in data set [5] (pH 4, pH 4, 40° C.), 100%; in data set [5] (pH 6, pH 6, 40° C.), 99.1%; in data set [5] (pH 8, pH 8, 40° C.) it was 74.2%.

With `CC(=NO)[C@H](C)N=[N+]([O-])/C=C/c1ccc(OCC#CI)cc1` [Control, reference compound], the share remaining at 288 h was 99.3% in data set [5] (4° C.); 95.8% in data set [5] (25° C.); 96.6% in data set [5] (40° C.); 0% in data set [5] (pH 4, pH 4, 40° C.); 79.7% in data set [5] (pH 6, pH 6, 40° C.); 91.4% in data set [5] (pH 8, pH 8, 40° C.).

Consider `CC(=C[N+]([O-])=NC(C)COCC#CI)c1ccc(Cl)cc1` (centres unmarked) [Example 1, 2-(2-(4-chlorophenyl)-1-propenyl-ONN-azoxy)-1-(3-iodo-2-propynyloxy)propan], for which the MIC in data set [1] stood at 0.8 mg/L (≈ 1.91 µM); in data set [2], 50 mg/L (≈ 119 µM); in data set [3], 1.6 mg/L (≈ 3.82 µM); in data set [4], 0.4 mg/L (≈ 0.955 µM).

For `CC(=C[N+]([O-])=NC(C)C(C)OCC#CI)c1ccccc1Cl` (centres unmarked) [Example 2, 3-(2-(2-chlorophenyl)-1-propenyl-ONN-azoxy)-2-(3-iodo-2-propynyloxy)butane], the MIC came out at 1.6 mg/L (≈ 3.7 µM) in data set [1], 50 mg/L (≈ 116 µM) in data set [2], 1.6 mg/L (≈ 3.7 µM) in data set [3] and 1.6 mg/L (≈ 3.7 µM) in data set [4].

Turning to `C#CCOc1ccc(C=C[N+]([O-])=NC(C)C(C)O)cc1` (centres unmarked) [Example 3, 3-(4-(2-propynyloxy)styryl-ONN-azoxy)-2-butanol], the MIC was 0.2 mg/L (≈ 0.729 µM) in data set [1], 25 mg/L (≈ 91.1 µM) in data set [2] and 0.2 mg/L (≈ 0.729 µM) in data set [3].

With `CC(O)C(C)N=[N+]([O-])c1ccc(OCC#CI)cc1` (centres unmarked) [Example 11, 3-(4-(3-iodo-2-propynyloxy)phenyl-ONN-azoxy)-2-butanol], the minimal inhibitory concentration (MIC) in data set [1] is 1.6 mg/L (≈ 4.28 µM); in data set [2], 6.3 mg/L (≈ 16.8 µM); in data set [3], 0.8 mg/L (≈ 2.14 µM); in data set [4], 1.6 mg/L (≈ 4.28 µM).

On to `C[C@H](N=[N+]([O-])c1ccc(OCC#CI)cc1)[C@@H](C)O` [Example 17, 2(R)-3(S)-3-(4-(3-iodo-2-propynyloxy)phenyl-ONN-azoxy)-2-butanol], for which the MIC is 1.6 mg/L (≈ 4.28 µM) in data set [1], 6.3 mg/L (≈ 16.8 µM) in data set [2], 0.8 mg/L (≈ 2.14 µM) in data set [3] and 1.6 mg/L (≈ 4.28 µM) in data set [4]. In addition, the share remaining at 2160 h is 100% in data set [5] (4° C.); 99.4% in data set [5] (25° C.); 100% in data set [5] (40° C.); 100% in data set [5] (pH 4, pH 4, 40° C.); 99.9% in data set [5] (pH 6, pH 6, 40° C.); 100% in data set [5] (pH 8, pH 8, 40° C.). Besides, the share remaining at 288 h in data set [5] (4° C.) was found to be 100%; in data set [5] (25° C.) it was 102%; in data set [5] (40° C.), 99.8%; in data set [5] (pH 4, pH 4, 40° C.) it was 99.7%; in data set [5] (pH 6, pH 6, 40° C.), 100%; in data set [5] (pH 8, pH 8, 40° C.), 100%.

Take `CCCC/C=C/[N+]([O-])=N[C@@H](C)C(C)=O` [KA-7367A]: in data set [6], the “stability (in words)” value is “unstable”. For the same compound, in data set [7], the “antifungal activity (in words)” value was “excellent antifungal activity”.

Source of the values: US5541169A, “Azoxy compound” (Kowa Company, Ltd., priority 1992, dated 1996).
